Among the data in PubChem BioAssay (NCI) are GI50 and TGI values, retold here.

Holding throughout (assay): NCI tumour cell line growth inhibition, 48 h
The test system of assay [1] is MDA-MB-435.
Assay [2] relates to NCI-H226 lung.
Assay [3] relates to MCF7 breast.
In assay [4] the test system is OVCAR-4 ovarian.
Assay [5] deals with OVCAR-8 ovarian.
Assay [6] deals with HCT-116 colon.
For assay [7], the system named is CAKI-1 renal.
In assay [8] the test system is HCC-2998 colon.
Assay [9] relates to TK-10 renal.
Assay [10] deals with PC-3 prostate.

The structures appear in SMILES notation.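 How tested: cells in 96-well plates exposed to compound for 48 hours at five concentrations. At the GI50, growth is halved. TGI: concentration producing complete growth inhibition.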 Some results are limits rather than exact numbers.

On to `CC[C@H](C)C(=O)O[C@H]1C[C@H](O)C=C2C=C[C@H](C)[C@H](CC[C@@H](O)C[C@@H](O)CC(=O)O)[C@H]21`, for which the GI50 in assay [1], in assay [2], in [3], in assay [4], in assay [5] and in [6] was > 100 µM each time. Further, the GI50 in assay [7], in assay [8], in assay [9] and in [10] was > 100 µM throughout. Moreover, the TGI in assay [1], in assay [2], in assay [3], in assay [4], in assay [5] and in assay [6] was > 100 µM each time. Moreover, the TGI in [7], in assay [8], in assay [9] and in [10] was > 100 µM in each case.

For `Cc1coc2c1C(OC(=O)C(C)C)C1(C)C(C)CCC(O)C1C2=O` (stereo not given), the TGI in assay [1], in [2], in assay [3], in [4], in [5] and in assay [6] was > 100 µM each time. Besides, the TGI in [7], in assay [8], in assay [9] and in assay [10] was > 100 µM in each case.

Regarding `C=CC1=C(C)C2=NC1=CC1=NC(=C(CC)/C1=C\O)C=C1N=C3C(=C1C)C(=O)[C@H](C(=O)OC)C3=C1NC(=C2)[C@@H](C)[C@@H]1CCC(=O)O`, the TGI in assay [1], in assay [2], in [3], in assay [4], in [5] and in [6] was > 100 µM in each case. In addition, the TGI in assay [7], in assay [8], in assay [9] and in assay [10] was > 100 µM each time.

`COc1cccc2c1n([O-])c1cccc(OC)c1[n+]2=O`: the GI50 is 10.9 µM in [1]; 6.1 µM in assay [2]; 3.15 µM in assay [3]; 4.51 µM in assay [5]; 3.7 µM in assay [6]; 3.97 µM in assay [7]. The GI50 in [8] is 2.36 µM; in assay [9], 24.3 µM; in [10], 7.76 µM. Moreover, the TGI in [1] was 36.2 µM; in [2] it was 28.8 µM; in [3], 25.6 µM; in [5], 35.8 µM; in [6] it was 64.3 µM; in [7], 76.5 µM. Further, the TGI was 11.6 µM in [8], > 100 µM in assay [9] and 35.3 µM in [10].

`N#CC1C=Cc2c(ccc3ccccc23)N1C(=O)c1ccccc1` (stereo not given): the GI50 in [1] is 0.0383 µM; in [2], 1.34 µM; in [3], 0.0413 µM; in assay [4] it was 1.47 µM; in assay [5], 0.461 µM; in assay [6], 0.0637 µM. Further, the GI50 in assay [7] was 0.108 µM; in [8], 0.43 µM; in assay [9], 3.78 µM; in assay [10], 0.333 µM. The TGI was 0.664 µM in assay [1]; > 100 µM in [2]; > 100 µM in assay [3]; > 100 µM in assay [4]; > 100 µM in assay [5]; > 100 µM in assay [6]. The TGI in assay [8] was > 47.6 µM; in assay [9] it was > 65.8 µM; in [10], > 100 µM.

Turning to `O=C(O)C(Oc1nc(=S)[nH]c(=S)[nH]1)(c1ccc(Cl)cc1)c1ccc(Cl)cc1`, the TGI in assay [1], in assay [2], in [3], in assay [4], in assay [5] and in assay [6] was > 100 µM each time. The TGI in [7], in [8], in assay [9] and in [10] was > 100 µM in each case.

Turning to `O=C(c1ccccc1)c1c(C(F)(F)F)n([O-])c2ccc(C(F)(F)F)cc2[n+]1=O`, the GI50 in assay [1] is 0.567 µM; in assay [2] it was 0.524 µM; in [3], 0.305 µM; in assay [4], 0.156 µM; in assay [5] it was 1.2 µM; in assay [6], 0.138 µM. In addition, the GI50 was 0.193 µM in assay [7], 0.622 µM in assay [8], 0.636 µM in assay [9] and 0.0948 µM in assay [10]. Also, the TGI in assay [1] was 1.28 µM; in assay [2], 1.2 µM; in assay [3], 0.82 µM; in assay [4] it was 0.36 µM; in [5], 3.57 µM; in [6] it was 0.27 µM. In addition, the TGI in assay [7] amounted to 0.348 µM; in [8] it was 1.28 µM; in [9], 1.35 µM; in [10], 0.229 µM.

As to `COc1cc2c3c(n(C)c(=O)c2cc1OC)-c1cc2c(cc1/C3=C\CCNCCCN)OCO2`, the GI50 in assay [1] is 2.48 µM; in assay [2] it was 0.987 µM; in assay [3] it was 2.77 µM; in assay [4], 1.04 µM; in [5] it was 2.98 µM; in [6], 1.49 µM. The values for the GI50 in assay [7], in [9] and in assay [10] were 3.44 µM, 5.29 µM and 2.09 µM, respectively. The TGI in assay [1] is 15.9 µM; in [2], 5.02 µM; in [3], 13.4 µM; in assay [4], 7.56 µM; in assay [5], 44.6 µM; in assay [6], 3.39 µM. For the same compound, the TGI is 14.3 µM in assay [7], 22.4 µM in [9] and 10.2 µM in assay [10].
